Source: patent publication US11597727B2 (THE REGENTS OF THE UNIVERSITY OF CALIFORNIA, priority 2018, dated 2023)

What follows are molecules tested against integrin α2β1 (Homo sapiens, UniProt P05556+P17301) (assay: HT 1080 cell adhesion assay on rat tail collagen I). Conditions: HT1080 (human fibrosarcoma) cells on rat tail collagen I, absorbance at 595 nm, triplicate; read-out: IC50s from HT 1080 Cell adhesion assay.
Chain of integrin α2β1 (P17301 30-1181): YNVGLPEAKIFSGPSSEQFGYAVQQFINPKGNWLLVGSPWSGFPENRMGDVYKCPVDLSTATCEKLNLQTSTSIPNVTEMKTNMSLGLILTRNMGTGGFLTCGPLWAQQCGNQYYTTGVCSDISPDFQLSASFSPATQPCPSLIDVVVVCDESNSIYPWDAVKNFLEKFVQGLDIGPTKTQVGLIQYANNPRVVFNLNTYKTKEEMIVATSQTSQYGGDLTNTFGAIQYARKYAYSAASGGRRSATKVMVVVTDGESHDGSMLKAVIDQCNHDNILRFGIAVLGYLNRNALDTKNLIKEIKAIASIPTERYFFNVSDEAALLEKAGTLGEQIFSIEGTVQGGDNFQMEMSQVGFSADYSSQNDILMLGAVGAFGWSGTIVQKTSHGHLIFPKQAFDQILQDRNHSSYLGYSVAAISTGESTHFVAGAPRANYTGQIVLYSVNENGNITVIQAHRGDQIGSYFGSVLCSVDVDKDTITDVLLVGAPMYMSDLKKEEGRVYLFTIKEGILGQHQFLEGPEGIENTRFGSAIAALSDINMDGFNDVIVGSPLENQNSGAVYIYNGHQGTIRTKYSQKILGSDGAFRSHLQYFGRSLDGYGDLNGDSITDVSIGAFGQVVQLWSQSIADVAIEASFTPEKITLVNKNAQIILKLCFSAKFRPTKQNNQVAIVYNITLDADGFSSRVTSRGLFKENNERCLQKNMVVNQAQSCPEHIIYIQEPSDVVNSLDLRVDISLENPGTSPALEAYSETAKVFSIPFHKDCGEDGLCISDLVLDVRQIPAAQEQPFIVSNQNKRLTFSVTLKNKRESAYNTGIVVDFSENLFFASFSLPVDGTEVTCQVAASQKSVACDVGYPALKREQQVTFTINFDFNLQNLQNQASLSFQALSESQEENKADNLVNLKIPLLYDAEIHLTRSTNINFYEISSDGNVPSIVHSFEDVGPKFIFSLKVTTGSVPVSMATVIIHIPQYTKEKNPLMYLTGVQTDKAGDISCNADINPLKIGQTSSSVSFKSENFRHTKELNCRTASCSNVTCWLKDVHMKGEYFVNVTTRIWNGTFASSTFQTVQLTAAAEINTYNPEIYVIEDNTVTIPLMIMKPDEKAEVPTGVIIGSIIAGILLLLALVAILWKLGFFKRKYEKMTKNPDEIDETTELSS
Chain of integrin α2β1 (P05556 21-798): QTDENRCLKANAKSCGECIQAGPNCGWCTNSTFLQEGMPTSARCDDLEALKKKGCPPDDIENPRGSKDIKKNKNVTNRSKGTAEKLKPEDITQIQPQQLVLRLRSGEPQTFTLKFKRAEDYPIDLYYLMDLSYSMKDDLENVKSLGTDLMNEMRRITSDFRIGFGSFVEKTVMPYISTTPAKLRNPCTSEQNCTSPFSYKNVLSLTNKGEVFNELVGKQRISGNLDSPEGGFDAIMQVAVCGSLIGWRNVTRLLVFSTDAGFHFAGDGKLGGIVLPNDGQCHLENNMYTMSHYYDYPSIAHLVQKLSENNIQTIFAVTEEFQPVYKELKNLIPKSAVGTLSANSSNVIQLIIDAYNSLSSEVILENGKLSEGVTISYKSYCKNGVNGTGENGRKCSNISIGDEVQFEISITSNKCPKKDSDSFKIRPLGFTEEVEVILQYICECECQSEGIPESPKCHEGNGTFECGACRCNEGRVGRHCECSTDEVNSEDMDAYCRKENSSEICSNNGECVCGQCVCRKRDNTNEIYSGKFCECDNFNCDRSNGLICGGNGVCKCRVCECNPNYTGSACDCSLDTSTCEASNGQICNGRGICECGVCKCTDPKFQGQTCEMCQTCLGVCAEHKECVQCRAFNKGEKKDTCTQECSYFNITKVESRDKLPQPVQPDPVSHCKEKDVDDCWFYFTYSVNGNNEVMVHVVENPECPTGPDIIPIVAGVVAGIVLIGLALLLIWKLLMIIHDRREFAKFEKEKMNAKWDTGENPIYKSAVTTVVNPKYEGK
Type: cell-based
Parameters: HT1080 (human fibrosarcoma) cells (or human airway smooth muscle cells) were detached and resuspended in serum-free DMEM; endogenous in cells; host or cells: HT1080 human fibrosarcoma cells
Experimental: Cell adhesion Assay: Ninety-six-well flat-bottomed tissue culture plates were coated with rat tail collagen I for 1 hour at 37° C. After incubation, wells were blocked with 1% BSA at 37° C. for 1 hour. Control wells were filled with 1% BSA. HT1080 (human fibrosarcoma) cells (or human airway smooth muscle cells) were detached and resuspended in serum-free DMEM. Cells were incubated with anti-integrin alpha2 antibody control or 10-fold dilutions of each compound with a starting concentration of 10 uM for 15 minutes at 4° C. before plating. The plates were centrifuged at 10 g for 5 minutes before incubation for 1 hour at 37° C. in humidified 5% CO2. Nonadherent cells were removed by centrifugation (top side down) at 10 g for 5 minutes. Attached cells were stained with 0.5% crystal violet, and the wells were washed with PBS. The relative number of cells in each well was evaluated after solubilization in 40 μl of 2% Triton X-100 by measuring absorbance at 595 nm in a microplate reader. All determinations were carried out in triplicate.
C[C@H](NC(=O)NC[C@H](NC(=O)c1c(Cl)cccc1Cl)C(=O)O)c1ccccc1 [KZ-1-13, (S)-2-(2,6-dichlorobenzamido)-3-(3-((S)-1-phenylethyl)ureido)propanoic acid] was tested, and the IC50 was > 100 µM.
Work on O=C(NCc1ccsc1)NC[C@H](NC(=O)c1c(Cl)cccc1Cl)C(=O)O [KZ-1-38, (S)-2-(2,6-dichlorobenzamido)-3-(3-(thiophen-3-ylmethyl)ureido)propanoic acid] yielded an IC50 of 10 to 100 µM.
CC(C)(C)OC(=O)NC[C@H](NC(=O)c1c(Cl)cccc1Cl)C(=O)O [A2-39, (S)-3-((tert-butoxycarbonyl)amino)-2-(2,6-dichlorobenzamido)propanoic acid] was tested, and the IC50 was 10 to 100 µM.
CC(CC12CC3CC(CC(C3)C1)C2)NC(=O)NC[C@H](NC(=O)c1c(Cl)cccc1Cl)C(=O)O (stereo partly drawn) [A2-155, (2S)-3-(3-(1-(adamantan-1-yl)propan-2-yl)ureido)-2-(2,6-dichlorobenzamido)propanoic acid] showed an IC50 of 10 to 100 µM.
Molecule Cc1cc(OC(C)C)cc(C)c1C(=O)N[C@@H](CNC(=O)NCc1ccccc1)C(=O)O [A2-61, (S)-3-(3-benzylureido)-2-(4-isopropoxy-2,6-dimethylbenzamido)propanoic acid] has an IC50 of 10 to 100 µM.
O=C(NC[C@H](NC(=O)c1c(Cl)cccc1Cl)C(=O)O)NC12CC3CC(CC1C3)C2 [A2-145, (2S)-2-(2,6-dichlorobenzamido)-3-(3-(hexahydro-2,5-methanopentalen-3a(1H)-yl)ureido)propanoic acid] showed an IC50 of 10 to 100 µM.
With O=C(NCc1ccc(Cl)cc1)NC[C@H](NC(=O)c1c(Cl)cccc1Cl)C(=O)O [KZ-1-26, (S)-3-(3-(4-chlorobenzyl)ureido)-2-(2,6-dichlorobenzamido)propanoic acid] the IC50 was > 100 µM.
For CC(C)CC(=O)N[C@@H](CNC(=O)NCc1ccccc1)C(=O)O [A2-37, (S)-3-(3-benzylureido)-2-(3-methylbutanamido)propanoic acid], the IC50 was > 100 µM.
With O=C(NCCc1ccccc1)NC[C@H](NC(=O)c1c(Cl)cccc1Cl)C(=O)O [KZ-1-11, (S)-2-(2,6-dichlorobenzamido)-3-(3-phenethylureido)propanoic acid] the IC50 was > 100 µM.
In the case of CCC(CC)C(=O)N[C@@H](CNC(=O)NCc1ccccc1)C(=O)O [A2-38, (S)-3-(3-benzylureido)-2-(2-ethylbutanamido)propanoic acid], the IC50 is reported as > 100 µM.
O=C(NC[C@H](NC(=O)c1c(Cl)cccc1Cl)C(=O)O)NC12CC3CC(CC(C3)C1)C2 [A2-87] gave an IC50 of 10 to 100 µM.
For O=C(NC[C@H](NC(=O)c1c(Cl)cccc1Cl)C(=O)O)NC1CCC2(CC1)C1CC3CC(C1)CC2C3 (stereo partly drawn) [A2-180, (S)-2-(2,6-dichlorobenzamido)-3-(3-(spiro[adamantane-2,1′-cyclohexan]-4′-yl)ureido)propanoic acid], the IC50 was 10 to 100 µM.
Cc1cc(C)c(C(=O)N[C@@H](CNC(=O)NCc2ccccc2)C(=O)O)c(C)c1 [A2-26, (S)-3-(3-benzylureido)-2-(2,4,6-trimethylbenzamido)propanoic acid] gave an IC50 of 10 to 100 µM.
In the case of COc1cc(C)c(C(=O)N[C@@H](CNC(=O)NCc2ccccc2)C(=O)O)c(C)c1 [A2-60, (S)-3-(3-benzylureido)-2-(4-methoxy-2,6-dimethylbenzamido)propanoic acid], the IC50 is reported as 10 to 100 µM.
In the case of O=C(NCC1CCCCC1)NC[C@H](NC(=O)c1c(Cl)cccc1Cl)C(=O)O [KZ-1-22, (S)-3-(3-(cyclohexylmethyl)ureido)-2-(2,6-dichlorobenzamido)propanoic acid], the IC50 is reported as > 100 µM.
With O=C(NC[C@H](NC(=O)c1c(Cl)cccc1Cl)C(=O)O)NC12CC3CC(C1)CC(C(F)(F)F)(C3)C2 [A2-131, (S)-2-(2,6-dichlorobenzamido)-3-(3-(3-(trifluoromethyl)adamantan-1-yl)ureido)propanoic acid] the IC50 was 10 to 100 µM.
O=C(NC[C@H](NC(=O)c1c(Cl)cccc1Cl)C(=O)O)NC1CC2CCC1C2 (stereo partly drawn) [A2-172, (2S)-3-(3-(bicyclo[2.2.1]heptan-2-yl)ureido)-2-(2,6-dichlorobenzamido)propanoic acid] was tested, and the IC50 was < 10 µM.
O=C(NCc1cccs1)NC[C@H](NC(=O)c1c(Cl)cccc1Cl)C(=O)O [KZ-1-34, (S)-2-(2,6-dichlorobenzamido)-3-(3-(thiophen-2-ylmethyl)ureido)propanoic acid] gave an IC50 of 10 to 100 µM.
In the case of O=C(NCC1CC2CCC1CC2)NC[C@H](NC(=O)c1c(Cl)cccc1Cl)C(=O)O (stereo partly drawn) [A2-175], the IC50 is reported as 10 to 100 µM.
O=C(NCc1ccccc1)NC[C@H](NC(=O)c1c(F)cccc1Br)C(=O)O [A2-36, (S)-3-(3-benzylureido)-2-(2-bromo-6-fluorobenzamido)propanoic acid] showed an IC50 of 10 to 100 µM.
With O=C(NCc1ccc(C(F)(F)F)cc1)NC[C@H](NC(=O)c1c(Cl)cccc1Cl)C(=O)O [KZ-1-30, (S)-2-(2,6-dichlorobenzamido)-3-(3-(4-(trifluoromethyl)benzyl)ureido)propanoic acid] the IC50 was > 100 µM.
Molecule CC1(C)C2CCC(CNC(=O)NC[C@H](NC(=O)c3c(Cl)cccc3Cl)C(=O)O)C1C2 (stereo partly drawn) [A2-173] has an IC50 of 10 to 100 µM.
C[C@@H](NC(=O)NC[C@H](NC(=O)c1c(Cl)cccc1Cl)C(=O)O)c1ccccc1 [KZ-1-12, (S)-2-(2,6-dichlorobenzamido)-3-(3-((R)-1-phenylethyl)ureido)propanoic acid] gave an IC50 of 10 to 100 µM.
O=C(NCc1ccc(Br)cc1)NC[C@H](NC(=O)c1c(Cl)cccc1Cl)C(=O)O [KZ-1-23, (S)-3-(3-(4-bromobenzyl)ureido)-2-(2,6-dichlorobenzamido)propanoic acid] showed an IC50 of 10 to 100 µM.
With CCCNC(=O)NC[C@H](NC(=O)c1c(Cl)cccc1Cl)C(=O)O [KZ-1-27, (S)-2-(2,6-dichlorobenzamido)-3-(3-propylureido)propanoic acid] the IC50 was > 100 µM.
CCN(CC)C(=O)NC[C@H](NC(=O)c1c(Cl)cccc1Cl)C(=O)O [A2-71, (S)-2-(2,6-dichlorobenzamido)-3-(3,3-diethylureido)propanoic acid] was tested, and the IC50 was > 100 µM.
CC1(C)C2CCC1(C)C(NC(=O)NC[C@H](NC(=O)c1c(Cl)cccc1Cl)C(=O)O)C2 (stereo partly drawn) [A2-171, (2S)-2-(2,6-dichlorobenzamido)-3-(3-(1,7,7-trimethylbicyclo[2.2.1]heptan-2-yl)ureido)propanoic acid] was tested, and the IC50 was < 10 µM.
For O=C(NC[C@H](NC(=O)c1c(Cl)cccc1Cl)C(=O)O)OCc1ccccc1 [A2-72, (S)-3-(((benzyloxy)carbonyl)amino)-2-(2,6-dichlorobenzamido)propanoic acid], the IC50 was > 100 µM.
Molecule O=C(NC[C@H](NC(=O)c1c(Cl)cccc1Cl)C(=O)O)NC(c1ccccc1)c1ccccc1 [A2-127, (S)-3-(3-benzhydrylureido)-2-(2,6-dichlorobenzamido)propanoic acid] has an IC50 of 10 to 100 µM.
COc1ccccc1CNC(=O)NC[C@H](NC(=O)c1c(Cl)cccc1Cl)C(=O)O [KZ-1-14, (S)-2-(2,6-dichlorobenzamido)-3-(3-(2-methoxybenzyl)ureido)propanoic acid] showed an IC50 of 10 to 100 µM.
In the case of O=C(NC[C@H](NC(=O)c1c(Cl)cccc1Cl)C(=O)O)N[C@@H]1CCCc2ccccc21 [A2-124, (2S)-2-(2,6-dichlorobenzamido)-3-(3-(1,2,3,4-tetrahydronaphthalen-1-yl)ureido)propanoic acid], the IC50 is reported as < 10 µM.
In the case of O=C(NCc1ccccc1)NC[C@H](NC(=O)c1c(Cl)cncc1Cl)C(=O)O [A2-29, (S)-3-(3-benzylureido)-2-(3,5-dichloroisonicotinamido)propanoic acid], the IC50 is reported as < 10 µM.
O=C(NCc1ccco1)NC[C@H](NC(=O)c1c(Cl)cccc1Cl)C(=O)O [KZ-1-17, (S)-2-(2,6-dichlorobenzamido)-3-(3-(furan-2-ylmethyl)ureido)propanoic acid] was tested, and the IC50 was > 100 µM.
Work on CC(NC(=O)NC[C@H](NC(=O)c1c(Cl)cccc1Cl)C(=O)O)C12CC3CC(CC(C3)C1)C2 (stereo partly drawn) [A2-132, (2S)-3-(3-(1-(adamantan-1-yl)ethyl)ureido)-2-(2,6-dichlorobenzamido)propanoic acid] yielded an IC50 of 10 to 100 µM.
Molecule O=C(NC[C@H](NC(=O)c1c(Cl)cccc1Cl)C(=O)O)NC12CCC3CC(CC(C3)C1)C2 [A2-181, (25)-2-(2,6-dichlorobenzamido)-3-(3-(tricyclo[4.3.1.13,8]undecan-3-yl)ureido)propanoic acid] has an IC50 of 10 to 100 µM.
With O=C(NC[C@H](NC(=O)c1c(Cl)cccc1Cl)C(=O)O)NCC12CC3CC(CC(O)(C3)C1)C2 [A2-153] the IC50 was 10 to 100 µM.
For CC(C)(C)NC(=O)NC[C@H](NC(=O)c1c(Cl)cccc1Cl)C(=O)O, the IC50 was > 100 µM.
Work on O=C(NCC1CC2CCC1C2)NC[C@H](NC(=O)c1c(Cl)cccc1Cl)C(=O)O (stereo partly drawn) [A2-174, (2S)-3-(3-(bicyclo[2.2.1]heptan-2-ylmethyl)ureido)-2-(2,6-dichlorobenzamido)propanoic acid] yielded an IC50 of 10 to 100 µM.
Work on O=C(NC[C@H](NC(=O)c1c(Cl)cccc1Cl)C(=O)O)NCC12CC3CC(CC(C3)C1)C2 [A2-83] yielded an IC50 of 10 to 100 µM.
For Cc1ccc(CNC(=O)NC[C@H](NC(=O)c2c(Cl)cccc2Cl)C(=O)O)cc1 [KZ-1-9, (S)-2-(2,6-dichlorobenzamido)-3-(3-(4-methylbenzyl)ureido)propanoic acid], the IC50 was > 100 µM.
O=C(NCc1ccccc1)NC[C@H](NC(=O)c1c(C(F)(F)F)cccc1C(F)(F)F)C(=O)O [A2-27, (S)-3-(3-benzylureido)-2-(2,6-bis(trifluoromethyl)benzamido)propanoic acid] showed an IC50 of 10 to 100 µM.
O=C(N[C@@H](CNC(=S)NCc1ccccc1)C(=O)O)c1c(Cl)cccc1Cl [KZ-1-21, (S)-3-(3-benzylthioureido)-2-(2,6-dichlorobenzamido)propanoic acid] showed an IC50 of 10 to 100 µM.
